The numbers were not newly measured in US20210251886A1, “ORAL MUCOSAL DELIVERY SYSTEMS COMPRISING MONOPHASIC CONCENTRATE OF TERIPARATIDE” (ZIM LABORATORIES LIMITED, priority 2018, published 2021), which cites them from elsewhere.

The structures appear in SMILES notation. Read-outs that look alike come from different tables or passages of the source.

One may read the bioavailability as dose-corrected exposure relative to a reference, in per cent.

For this data set the following is noted: dogs.

On to `CC[C@H](C)[C@H](NC(=O)[C@H](CCC(=O)O)NC(=O)[C@H](CO)NC(=O)[C@@H](NC(=O)[C@@H](N)CO)C(C)C)C(=O)N[C@@H](CCC(N)=O)C(=O)N[C@@H](CC(C)C)C(=O)N[C@@H](CCSC)C(=O)N[C@@H](Cc1cnc[nH]1)C(=O)N[C@@H](CC(N)=O)C(=O)N[C@@H](CC(C)C)C(=O)NCC(=O)N[C@@H](CCCCN)C(=O)N[C@@H](Cc1cnc[nH]1)C(=O)N[C@@H](CC(C)C)C(=O)N[C@@H](CC(N)=O)C(=O)N[C@@H](CO)C(=O)N[C@@H](CCSC)C(=O)N[C@@H](CCC(=O)O)C(=O)N[C@@H](CCCN=C(N)N)C(=O)N[C@H](C(=O)N[C@@H](CCC(=O)O)C(=O)N[C@@H](Cc1c[nH]c2ccccc12)C(=O)N[C@@H](CC(C)C)C(=O)N[C@@H](CCCN=C(N)N)C(=O)N[C@@H](CCCCN)C(=O)N[C@@H](CCCCN)C(=O)N[C@@H](CC(C)C)C(=O)N[C@@H](CCC(N)=O)C(=O)N[C@@H](CC(=O)O)C(=O)N[C@H](C(=O)N[C@@H](Cc1cnc[nH]1)C(=O)N[C@@H](CC(N)=O)C(=O)N[C@@H](Cc1ccccc1)C(=O)O)C(C)C)C(C)C` [PTH (1-34)], for which the bioavailability result (buccal route) is on record as “about 3.3%” and the bioavailability (oral route) is 4.8%.
